The values below come from ChEMBL document CHEMBL1131086, “Synthesis and biological activity of conformationally restricted analogues of milnacipran: (1S, 2R)-1-phenyl-2-[(R)-1-amino-2-propynyl]-N,N- diethylcyclopropanecarboxamide is a novel class of NMDA receptor channel blocker” (J Med Chem, 1998).

The pIC50 is the IC50 on a negative log10 scale, so that one unit is a factor of ten. Higher therefore signals a low IC50. As a reminder, the pKi is the negative decadic logarithm of the Ki, by convention in mol/L.

In one assay the target is Glutamate NMDA receptor. More on the design: species or system Rattus norvegicus.
The target in assay [1] is Sodium-dependent serotonin transporter (Rattus norvegicus, UniProt P31652). The experiment in a line: Inhibition of Serotonin transporter in cerebral cortical synaptic membrane of rats using [3H]paroxetine.
Sequence of Sodium-dependent serotonin transporter (P31652 whole entry): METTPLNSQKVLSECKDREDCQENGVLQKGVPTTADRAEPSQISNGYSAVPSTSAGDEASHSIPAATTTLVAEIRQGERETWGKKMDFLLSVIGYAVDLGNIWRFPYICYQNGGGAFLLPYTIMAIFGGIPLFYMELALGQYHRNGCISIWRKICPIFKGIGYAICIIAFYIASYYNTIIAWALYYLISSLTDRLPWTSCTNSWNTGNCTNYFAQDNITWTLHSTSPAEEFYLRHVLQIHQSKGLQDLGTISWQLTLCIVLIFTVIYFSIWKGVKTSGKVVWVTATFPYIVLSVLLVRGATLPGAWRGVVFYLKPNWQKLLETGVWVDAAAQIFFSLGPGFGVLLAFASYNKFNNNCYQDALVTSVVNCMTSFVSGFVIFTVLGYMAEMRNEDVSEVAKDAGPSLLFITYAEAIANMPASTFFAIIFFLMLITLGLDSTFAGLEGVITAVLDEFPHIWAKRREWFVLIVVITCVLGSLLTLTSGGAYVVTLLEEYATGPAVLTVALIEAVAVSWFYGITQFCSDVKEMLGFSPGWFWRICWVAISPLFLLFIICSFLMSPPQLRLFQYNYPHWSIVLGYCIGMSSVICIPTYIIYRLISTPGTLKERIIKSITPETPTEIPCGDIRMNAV
Assay [2] deals with T1, 5-hydroxytryptamine receptor 2C (Rattus norvegicus) (UniProt P08909).
T1 sequence (whole entry): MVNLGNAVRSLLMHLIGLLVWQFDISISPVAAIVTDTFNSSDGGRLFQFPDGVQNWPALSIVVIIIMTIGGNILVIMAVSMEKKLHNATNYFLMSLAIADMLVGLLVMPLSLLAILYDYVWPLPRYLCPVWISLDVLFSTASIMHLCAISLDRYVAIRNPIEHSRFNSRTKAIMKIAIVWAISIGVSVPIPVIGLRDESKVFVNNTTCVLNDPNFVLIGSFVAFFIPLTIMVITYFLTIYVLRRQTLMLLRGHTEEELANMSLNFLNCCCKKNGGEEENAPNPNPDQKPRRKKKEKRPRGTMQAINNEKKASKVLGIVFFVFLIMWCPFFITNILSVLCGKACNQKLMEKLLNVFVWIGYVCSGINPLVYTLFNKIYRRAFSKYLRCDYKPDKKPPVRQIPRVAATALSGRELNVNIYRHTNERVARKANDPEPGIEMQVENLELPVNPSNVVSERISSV
The experiment in a line: Compound tested for relative response using 0.1 uM 5-HT as agonist against 5-hydroxytryptamine 2C receptor. The format is functional.

The target in assay [3] is T2, Muscarinic acetylcholine receptor M1 (Rattus norvegicus) (UniProt P08482).
T2 sequence (whole entry): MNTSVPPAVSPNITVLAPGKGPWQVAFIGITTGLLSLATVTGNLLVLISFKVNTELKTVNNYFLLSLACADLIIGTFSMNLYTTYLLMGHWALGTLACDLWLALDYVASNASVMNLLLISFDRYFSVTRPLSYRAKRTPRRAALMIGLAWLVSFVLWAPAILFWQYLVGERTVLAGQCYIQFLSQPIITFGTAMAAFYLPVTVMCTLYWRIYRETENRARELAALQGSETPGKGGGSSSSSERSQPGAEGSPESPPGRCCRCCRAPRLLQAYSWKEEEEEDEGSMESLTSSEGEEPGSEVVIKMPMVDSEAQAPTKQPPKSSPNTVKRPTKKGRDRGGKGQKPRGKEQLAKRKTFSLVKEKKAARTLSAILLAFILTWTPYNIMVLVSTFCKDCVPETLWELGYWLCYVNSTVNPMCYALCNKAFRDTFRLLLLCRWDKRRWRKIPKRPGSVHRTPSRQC
The experiment in a line: Compound tested for relative response using 1 uM ACh as agonist against AChM1 receptor. It is filed as functional.

The target in assay [4] is GABA-A receptor; anion channel (Rattus norvegicus) (UniProt O09028+P15431+P18506+P18508+P19969+P20236+P23574+P23576+P28471+P28473+P30191+P62813+P63079+P63138+Q91ZM7+Q9ES14). The experiment in a line: Compound tested for relative response using 30 uM GABA as agonist against Gamma-aminobutyric acid A receptor. It is filed as functional.
Assay [5] addresses Glutamate receptor ionotropic, kainate (Rattus norvegicus) (UniProt P22756+Q01812+P42260+P42264+Q63273). The experiment in a line: Compound tested for relative response using 30 uM kainate as agonist against Ionotropic glutamate receptor kainate. It is filed as functional.
Assay [6] deals with Glutamate receptor ionotropic, AMPA (Rattus norvegicus) (UniProt P19491+P19492+P19493+P19490). The experiment in a line: Compound tested for relative response using 10 uM AMPA as agonist against Ionotropic glutamate receptor AMPA. The format is functional.
For assay [7], the target named is Glutamate receptor ionotropic, NMDA 1 (Rattus norvegicus) (UniProt P35439). The experiment in a line: Compound tested for relative response using 30 uM NMDA+10 uM glycine as agonist against N-methyl-D-aspartate glutamate receptor 1. The format is functional.

Each structure is given as a SMILES string. pIC50, pKi: −log10 of the molar value.

Description for Glutamate NMDA receptor: Inhibition of [3H]MK-801 binding to N-methyl-D-aspartate glutamate receptor of rat cerebral cortical synaptic membrane

`CCN(CC)C(=O)[C@@]1(c2ccccc2)C[C@H]1C(N)C(N)=O` (some centres undefined): the pIC50 against Glutamate NMDA receptor was 4.57. The pKi in assay [1] is below 4.00.
On the same counts, the results for `CCN(CC)C(=O)[C@@]1(c2ccccc2)C[C@H]1C(N)C(=O)O` (some centres undefined) are below 4.00 and below 4.00.
For `C#CC(N)[C@@H]1C[C@@]1(C(=O)N(CC)CC)c1ccccc1` (stereo in doubt; 2d) [listing 1 of 2 here], the Relative response in assay [2] was 100%; in assay [3] it was 102%; in assay [4], 99.6%; in assay [5] it was 96.9%; in assay [6] it was 100%; in assay [7], 32.1%.
In the case of `CCN(CC)C(=O)[C@@]1(c2ccccc2)C[C@H]1C(N)C#N` (stereo in doubt; 3e), the negative logarithm of the IC50 (pIC50) against Glutamate NMDA receptor was below 4.00.
Take `CCN(CC)C(=O)[C@@]1(c2ccccc2)C[C@H]1C(N)C#N` (stereo in doubt; 2e): the pIC50 against Glutamate NMDA receptor was 4.02. In addition, the pKi in assay [1] is below 4.00.
Take `C#CC(N)[C@@H]1C[C@@]1(C(=O)N(CC)CC)c1ccccc1` (stereo in doubt; 2d) [listing 2 of 2 here]: the pIC50 at Glutamate NMDA receptor is 6.54. Further, in assay [1], the pKi is 6.72.
On the same counts, the results for `C#CC(N)[C@@H]1C[C@@]1(C(=O)N(CC)CC)c1ccccc1` (stereo in doubt; 3d) are 4.80 and 4.82.
On the same counts, the results for `CCN(CC)C(=O)[C@@]1(c2ccccc2)C[C@H]1C(N)C(=O)OC` (some centres undefined) are below 4.00 and 4.60.
